From patent US9556154B2, “Pyrrole-substituted indolone derivative, preparation method therefor, composition comprising same and use thereof” (SHIJIAZHUANG YILING PHARMACEUTICAL CO., LTD., priority 2014, dated 2017)
“Also recorded” adds a separate entry of the source. Read-outs that look alike come from different tables or passages of the source.

Tests used:
[1] = test system: HUVEC; test: Inhibitory activity on VEGF-induced in vitro proliferation of HUVEC (MTS); assay type: cell-based; conditions: Homo sapiens, 72 h, read-out: EC50, activity on VEGF-induced in vitro proliferation of HUVEC
Description: Assays for inhibitory activity on VEGF-induced proliferation of Human umbilical veins […] cell (HUVEC) line: HUVECs were cultured in F-12K containing 10% FBS, 18 u/mL heparin and 30 µg/mL ECGS, and HUVECs at 4-8 passages were selected for the experiment. The cells were digested with pancreatin, re-suspended in culture media (1×10^5/mL), and were added to a 96-well plate with 100 μL/well, for overnight adherent culturing. The culture was replaced with an F-12K culture solution containing 5% FBS and the cells were cultured for 24 h. […] A 0.1% FBS F-12K culture solution containing VEGF165 at a final concentration of 30 ng/ml or the vehicle (DMSO) was added and the cells were cultured under induction for 72 h. The culture solution was removed by pipetting, and 120 μL MTS assay solution was added to each well, which was incubated at 37° C. The OD490 was read. The group treated with a 5% FBS F-12K culture solution served as the negative control. VEGF-stimulated growth value was obtained by subtracting the OD of the negative control group from the OD of the VEGF165-stimulated group, and used for calculation of inhibition. A dose-effect curve was drawn using the GraphPad Prism software, and half effective concentration (EC50) was calculated.

[2] = Cytotoxicity to HUVEC (MTS); assay type: cell-based, Human; conditions: human, HUVEC cells; 72 h
Description: (§1) Assays for cytotoxicity: the above HUVECs were cultured in an F-12K culture medium containing 10% fetal bovine serum (FBS), 100 U/mL penicillin, 100 µg/mL streptomycin, 30 ug/mL ECGS, and 18 u/mL heparin. The HUVECs growing in the exponential phase were digested with pancreatin, and was adjust to have an appropriate level of cell density by using an F-12K complete medium containing 5% FBS, then 150 μL cells were inoculated into a 96-well plate at 3000 cells/well. […] After the cells were further cultured for 72 h, 20 μL MTS and 1 μL PMS were added to each well. 1-2 hours later, OD490 was measured, with OD650 as a reference. A dose-effect curve was drawn using the GraphPad Prism software, and half cytotoxic concentration (CC50) was calculated. The therapeutic index (TI) of the test compound on HUVECs was calculated as TI=CC50/EC50.

[3] = test system: HUVEC; test: Cytotoxicity to HUVEC (MTS); assay type: cell-based, Human; conditions: for TI = CC50/EC50: HUVEC; for Cytotoxicity to HUVEC compared with sunitinib: in words
Description: as §1

[4] = test system: MV-4-11 cell line; test: Inhibitory activity on proliferation of human-derived MV-4-11 tumor cell line (MTS); assay type: cell-based; conditions: for IC50: Homo sapiens, MV4-11, 72 h, read-out: IC50, in vitro proliferation of MV-4-11 cell line; for Maximum inhibition: MV-4-11, 72 h
Description: Human-derived acute leukemia cell line MV-4-11 is a cell line having mutation(s) in Flt-3.

[5] = target: KDR (VEGF receptor) tyrosine kinase (Homo sapiens, UniProt P35968); test: In vitro assay of biochemical activity on KDR tyrosine kinase (HTRF); conditions: read-out: In vitro inhibitory activity on KDR, IC50
Sequence of KDR (VEGF receptor) tyrosine kinase (P35968 20-1356): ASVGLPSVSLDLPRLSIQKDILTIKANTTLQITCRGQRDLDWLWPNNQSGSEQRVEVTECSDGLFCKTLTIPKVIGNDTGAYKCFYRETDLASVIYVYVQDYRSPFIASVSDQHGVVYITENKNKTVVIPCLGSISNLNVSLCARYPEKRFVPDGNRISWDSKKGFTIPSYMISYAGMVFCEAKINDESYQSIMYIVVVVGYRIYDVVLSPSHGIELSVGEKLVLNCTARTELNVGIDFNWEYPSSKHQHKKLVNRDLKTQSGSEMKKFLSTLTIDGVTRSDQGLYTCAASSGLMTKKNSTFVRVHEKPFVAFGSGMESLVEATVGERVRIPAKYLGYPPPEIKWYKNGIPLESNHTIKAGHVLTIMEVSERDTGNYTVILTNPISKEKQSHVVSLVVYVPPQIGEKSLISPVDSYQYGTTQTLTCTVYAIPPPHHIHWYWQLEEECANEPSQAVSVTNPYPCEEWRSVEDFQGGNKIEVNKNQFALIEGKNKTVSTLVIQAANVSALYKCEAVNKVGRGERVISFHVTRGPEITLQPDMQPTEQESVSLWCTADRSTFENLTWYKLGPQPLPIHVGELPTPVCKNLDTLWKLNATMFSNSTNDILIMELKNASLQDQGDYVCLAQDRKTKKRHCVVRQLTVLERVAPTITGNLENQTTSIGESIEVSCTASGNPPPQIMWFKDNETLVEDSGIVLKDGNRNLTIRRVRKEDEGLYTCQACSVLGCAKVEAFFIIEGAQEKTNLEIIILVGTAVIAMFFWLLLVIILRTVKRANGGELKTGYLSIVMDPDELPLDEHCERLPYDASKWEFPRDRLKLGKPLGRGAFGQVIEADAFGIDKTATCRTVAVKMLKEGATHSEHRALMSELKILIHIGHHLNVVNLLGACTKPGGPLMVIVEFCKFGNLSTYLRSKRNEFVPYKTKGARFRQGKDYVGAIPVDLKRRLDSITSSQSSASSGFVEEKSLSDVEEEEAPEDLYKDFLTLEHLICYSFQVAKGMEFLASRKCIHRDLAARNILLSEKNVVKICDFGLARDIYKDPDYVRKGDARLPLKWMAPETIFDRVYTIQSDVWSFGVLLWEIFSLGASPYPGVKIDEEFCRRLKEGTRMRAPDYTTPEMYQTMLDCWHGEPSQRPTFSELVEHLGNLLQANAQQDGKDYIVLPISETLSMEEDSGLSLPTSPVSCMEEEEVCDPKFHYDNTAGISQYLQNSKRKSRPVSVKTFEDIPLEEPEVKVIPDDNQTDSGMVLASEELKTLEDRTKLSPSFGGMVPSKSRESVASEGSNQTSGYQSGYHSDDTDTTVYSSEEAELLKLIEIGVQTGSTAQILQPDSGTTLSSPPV
Description: In vitro inhibitory activity of the compounds on KDR (VEGF receptor) tyrosine kinase was assayed by the HTRF (homogeneous time-resolved fluorescence) method. […] 10 μl SA-XL665 and a TK antibody were added to each well, which was incubated at room temperature for 1 h and read with Synergy2.

[6] = test system: MV-4-11 transplanted tumor; test: In vivo inhibition on MV-4-11 transplanted tumor in nude mice; parameters: species or system Balb/c nude mice; conditions: for BW (body weight) D0 / TV (tumor volume) D0: D0, 80 mg/kg intragastric once per day; for BW (body weight) D0 / BW (body weight) D21: in g (unit assumed); for TV (tumor volume) D0 / TV (tumor volume) D21: in mm³; for BW (body weight) D21 / TV (tumor volume) D21: D21, 80 mg/kg intragastric once per day
Description: MV-4-11 cells were cultured to proliferate in vitro, and the cells growing in the exponential phase were harvested and re-suspended in a serum-free EMEM culture medium. The cell suspension was subcutaneously injected by a syringe into the axillary cavity of the right forelimb of male Balb/c nude mice. The animals and growth of transplanted tumors were observed regularly. […] During the administration period, the diameter of tumors and body weight (BW) of animals were measured, and the living status of animals was monitored. The experiment was finished 3 weeks after administration, and the animals were sacrificed with CO2 and subjected to autopsy.

[7] = day 21, 80 mg/kg intragastric, in words

SMILES: Cc1[nH]c(/C=C2\C(=O)Nc3ccc(F)cc32)c(C)c1NC(=O)N1CCCCC1 [Comparative compound 1, reference compound]
- EC50 ([1]; VEGF165 30 ng/ml): 13.2 nM
- CC50 at 72 h [2]: 5690 nM
- TI = CC50/EC50 [3]: 430

SMILES: Cc1[nH]c(/C=C2\C(=O)Nc3ccc(F)cc32)c(C)c1NC(=O)N1CCCC1 [Comparative compound 2, reference compound]
- EC50 ([1]; VEGF165 30 ng/ml): 12.3 nM
- CC50 at 72 h [2]: 6980 nM
- TI = CC50/EC50 [3]: 567

SMILES: Cc1[nH]c(/C=C2\C(=O)Nc3ccc(F)cc32)c(C)c1NC(=O)CC1CCNCC1 [Comparative compound 3, reference compound]
- EC50 ([1]; VEGF165 30 ng/ml): 14.6 nM
- CC50 at 72 h [2]: 8050 nM
- TI = CC50/EC50 [3]: 550

SMILES: Cc1[nH]c(/C=C2\C(=O)Nc3ccc(F)cc32)c(C)c1NC(=O)C1CCNCC1 [Compound 2]
- EC50 ([1]; VEGF165 30 ng/ml): 16.1 nM
- IC50 [4]: 4.7 nM
- Maximum inhibition [4]: 92.6%
- IC50 [5]: 290 nM
- CC50 at 72 h [2]: > 20000 nM
- TI = CC50/EC50 [3]: >1238
- Cytotoxicity to HUVEC compared with sunitinib [3]: considerably lower than that of sunitinib

SMILES: Cc1[nH]c(/C=C2\C(=O)Nc3ccc(F)cc32)c(C)c1NC(=O)C1CCN(C(=O)N(C)C)CC1 [Compound 3]
- EC50 ([1]; VEGF165 30 ng/ml): 13.7 nM
- IC50 [4]: 10.7 nM
- Maximum inhibition [4]: 92.1%
- IC50 [5]: 78 nM
- CC50 at 72 h [2]: > 20000 nM
- TI = CC50/EC50 [3]: >1456
- Cytotoxicity to HUVEC compared with sunitinib [3]: considerably lower than that of sunitinib

SMILES: Cc1[nH]c(/C=C2\C(=O)Nc3ccc(F)cc32)c(C)c1NC(=O)C1CCN(C)CC1 [Compound 5]
- EC50 ([1]; VEGF165 30 ng/ml): 18.4 nM
- IC50 [4]: 1.68 nM
- Maximum inhibition [4]: 95.0%
- IC50 [5]: 141 nM
- CC50 at 72 h [2]: > 20000 nM
- TI = CC50/EC50 [3]: >1085
- Cytotoxicity to HUVEC compared with sunitinib [3]: considerably lower than that of sunitinib

SMILES: Cc1[nH]c(/C=C2\C(=O)Nc3ccc(F)cc32)c(C)c1NC(=O)[C@H]1CCCN1 [Compound 6]
- EC50 ([1]; VEGF165 30 ng/ml): 13.3 nM
- IC50 [4]: 11.6 nM
- Maximum inhibition [4]: 92.4%
- IC50 [5]: 83 nM
- CC50 at 72 h [2]: 17600 nM
- TI = CC50/EC50 [3]: 1316
- Cytotoxicity to HUVEC compared with sunitinib [3]: considerably lower than that of sunitinib
- BW (body weight) D0 [6]: 20.42 ± 0.20
- TV (tumor volume) D0 [6]: 238.25 ± 13.18
- BW (body weight) D21 [6]: 21.38 ± 0.37
- TV (tumor volume) D21 [6]: 0.00 ± 0.00
- Effect on tumors [6, 7]: completely disappeared; also recorded: complete disappearance of tumors
- Impact on body weight of animals [6, 7]: no significant impact on the body weight; also recorded: little impact on the body weight

SMILES: Cc1[nH]c(/C=C2\C(=O)Nc3ccc(F)cc32)c(C)c1NC(=O)[C@H]1CCCN1C(=O)N(C)C [Compound 8]
- EC50 ([1]; VEGF165 30 ng/ml): 11.3 nM
- IC50 [5]: 66 nM
- CC50 at 72 h [2]: > 20000 nM
- TI = CC50/EC50 [3]: >1762
- Cytotoxicity to HUVEC compared with sunitinib [3]: considerably lower than that of sunitinib

SMILES: Cc1[nH]c(/C=C2\C(=O)Nc3ccc(F)cc32)c(C)c1NC(=O)C1CCCCN1 (stereo not shown) [Compound 9]
- IC50 [4]: 5.34 nM
- Maximum inhibition [4]: 94.3%
- IC50 [5]: 89 nM

SMILES: Cc1[nH]c(/C=C2\C(=O)Nc3ccc(F)cc32)c(C)c1NC(=O)C1CCN(C(=O)N2CCCC2)CC1 [Compound 11]
- EC50 ([1]; VEGF165 30 ng/ml): 13.9 nM
- IC50 [5]: 74 nM
- CC50 at 72 h [2]: > 20000 nM
- TI = CC50/EC50 [3]: >1436
- Cytotoxicity to HUVEC compared with sunitinib [3]: considerably lower than that of sunitinib

SMILES: Cc1[nH]c(/C=C2\C(=O)Nc3ccc(F)cc32)c(C)c1NC(=O)C1CCCNC1 (stereo not shown) [Compound 12]
- IC50 [4]: 7.87 nM
- Maximum inhibition [4]: 93.1%
- IC50 [5]: 142 nM

SMILES: Cc1[nH]c(/C=C2\C(=O)Nc3ccc(F)cc32)c(C)c1NC(=O)C1CCCN(C(=O)N(C)C)C1 (stereo not shown) [Compound 13]
- IC50 [4]: 6.41 nM
- Maximum inhibition [4]: 90.2%
- IC50 [5]: 77 nM
- Cytotoxicity to HUVEC compared with sunitinib [3]: considerably lower than that of sunitinib

SMILES: Cc1[nH]c(/C=C2\C(=O)Nc3ccc(F)cc32)c(C)c1NC(=O)C1CCCN(C(=O)N2CCCC2)C1 (stereo not shown) [Compound 14]
- EC50 ([1]; VEGF165 30 ng/ml): 13 nM
- IC50 [5]: 143 nM
- CC50 at 72 h [2]: > 20000 nM
- TI = CC50/EC50 [3]: >1534
- Cytotoxicity to HUVEC compared with sunitinib [3]: considerably lower than that of sunitinib

SMILES: Cc1[nH]c(/C=C2\C(=O)Nc3ccc(F)cc32)c(C)c1NC(=O)[C@@H]1CCCN1 [Compound 15]
- EC50 ([1]; VEGF165 30 ng/ml): 14.2 nM
- IC50 [4]: 12.3 nM
- Maximum inhibition [4]: 92.5%
- IC50 [5]: 65 nM
- CC50 at 72 h [2]: 17700 nM
- TI = CC50/EC50 [3]: 1247
- Cytotoxicity to HUVEC compared with sunitinib [3]: considerably lower than that of sunitinib

SMILES: CCN(CC)CCNC(=O)c1c(C)[nH]c(/C=C2\C(=O)Nc3ccc(F)cc32)c1C [Sunitinib, reference compound]
- EC50 [1]: 7.73 nM
- IC50 [4]: 3.94 nM
- Maximum inhibition [4]: 94.4%
- CC50 at 72 h [2]: 4140 nM
- BW (body weight) D0 [6]: 19.47 ± 0.33
- TV (tumor volume) D0 [6]: 242.75 ± 20.58
- BW (body weight) D21 [6]: 16.02 ± 0.56
- TV (tumor volume) D21 [6]: 12.97 ± 2.47
- Impact on body weight of animals [6, 7]: significantly reduces the body weight
- Impact on body weight of animals ([6]; day 21, 80 mg/kg intragastric, in words, listed as sunitinib): significantly reduced
